The target in one test is T1, Substance-P receptor (Homo sapiens, UniProt P25103). In words: Inhibitory concentration for displacement of [3H]-Substance P (SP) in human IM-9 cells. Type of test: cell-based.
T1 sequence (P25103 whole entry): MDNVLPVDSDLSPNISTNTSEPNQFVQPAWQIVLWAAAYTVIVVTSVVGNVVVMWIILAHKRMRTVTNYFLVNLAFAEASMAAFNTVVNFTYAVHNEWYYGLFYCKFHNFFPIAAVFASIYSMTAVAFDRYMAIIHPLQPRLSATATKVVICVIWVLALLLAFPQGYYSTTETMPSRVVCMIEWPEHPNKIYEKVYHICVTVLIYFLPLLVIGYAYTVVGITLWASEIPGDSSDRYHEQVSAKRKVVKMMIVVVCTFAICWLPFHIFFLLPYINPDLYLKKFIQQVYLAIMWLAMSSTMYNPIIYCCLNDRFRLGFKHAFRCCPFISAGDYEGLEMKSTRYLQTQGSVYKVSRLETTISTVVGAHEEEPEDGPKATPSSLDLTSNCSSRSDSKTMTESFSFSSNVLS
Conditions: not given
In general terms: Loss of bound radioactivity is the signal in a displacement assay; it reports binding, not function.
In the case of `COc1cccc([C@H]2[C@@H](NCc3ccccc3OC)C3CCN2CC3)c1`, the half-inhibitory concentration (IC50) turned out to be 160 nM.
The same measure, in the same setting: in the case of `COc1ccccc1CN[C@H]1C2CCN(CC2)[C@H]1c1cccc(Cl)c1` it was 20 nM.
Same read-out and setting: as for `COc1ccccc1CN[C@H]1C2CCN(CC2)[C@H]1c1ccccc1`, the figure is 140 nM.
Still for that read-out and setting: in the case of `Clc1cccc([C@H]2[C@@H](NCc3ccccc3Cl)C3CCN2CC3)c1` it was 230 nM; in that of `COc1ccccc1CN[C@@H]1C2CCN(CC2)[C@H]1c1cccc(Cl)c1`, 240 nM.
In turn, `COc1ccc(CN[C@@H]2C3CCN(CC3)[C@@H]2c2cccc(Cl)c2)c(OC)c1` (single isomer, unassigned) came in with an IC50 of 39 nM.
Still for that read-out and setting: in the case of `COc1ccccc1CN[C@@H]1C2CCN(CC2)[C@H]1c1ccccc1` it was 700 nM; in that of `COc1ccc(CN[C@H]2C3CCN(CC3)[C@@H]2c2cccc(Cl)c2)c(OC)c1`, 350 nM.

Another test has as its target T1, Substance-P receptor. In words: Tested for Tachykinin receptor 1 antagonistic activity in dog isolated carotid artery(DCA) system at a concentration of 5*10e-6 M. Type of test: functional. Particulars: Canis lupus familiaris; target entry is the homologue from another species.
The compound `COc1ccc(CN[C@H]2C3CCN(CC3)[C@H]2c2cccc(Cl)c2)c(OC)c1` gave a pKB of 7.

In general, IC50 refers to the point on the concentration scale where inhibition reaches its midpoint. Low values mean greater potency in that assay, high ones weaker potency in that assay. For orientation: pKB means −log10 of the KB, conventionally taken in molar units. Low readings indicate a large KB, high ones a small KB.

The values are drawn from ChEMBL document CHEMBL1127272, “2-Aryl-1-azabicyclo[2.2.2]octanes as novel nonpeptide substance P antagonists” (Bioorg Med Chem Lett, 1994).
